Test results reported in PubChem BioAssay AID192 (DTP/NCI, 2004).
“And” between values parts separate entries of the source, which are not always exact repeats. Equal values may be shown once. Toxic doses and inconclusive results are not listed. How the source made its calls: active means survival T/C of 150% or more; inactive means T/C below 125% in these data.

Test system: BDF1 mice, B16 melanoma ip, median survival T/C
Experiment: NCI In Vivo Anticancer Drug Screen. Data for tumor model B16 Melanoma (intraperitoneal) in B6D2F1 (BDF1) mice
Conditions: endpoint: median survival time, higher = longer survival
Procedure, shortened: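 The ratio T/C compares compound-treated mice with vehicle-treated controls, using survival or tumor size as the endpoint in a transplantable tumor model.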

[1] = dose: 100.0 mg/kg/injection, schedule: Q04DX003 (ip), vehicle: Klucel (hydroxypropylcellulose) (HPC)
[2] = dose: 200.0 mg/kg/injection, schedule: Q04DX003 (ip), vehicle: Klucel (hydroxypropylcellulose) (HPC)
[3] = dose: 400.0 mg/kg/injection, schedule: Q04DX003 (ip), vehicle: Klucel (hydroxypropylcellulose) (HPC)
[4] = dose: 25.0 mg/kg/injection, schedule: Q01DX009 (ip), vehicle: saline with Tween-80
[5] = dose: 50.0 mg/kg/injection, schedule: Q01DX009 (ip), vehicle: saline with Tween-80
[6] = dose: 25.0 mg/kg/injection, schedule: Q01DX009 (ip), vehicle: saline
[7] = dose: 50.0 mg/kg/injection, schedule: Q01DX009 (ip), vehicle: saline
[8] = dose: 2.0 mg/kg/injection, schedule: Q01DX009 (ip), vehicle: saline
[9] = dose: 4.0 mg/kg/injection, schedule: Q01DX009 (ip), vehicle: saline

Measured: T/C

O=P(OCC(Br)CBr)(OCC(Br)CBr)OCC(Br)CBr (configuration not stated)
inactive: [1] 100 % of control | [2] 102 % of control | [3] 101 % of control

CC(=O)O[C@H]1[C@H]2O[C@]23[C@@H]2CC[C@@H]4C[C@@H](O)CC[C@]4(C)[C@H]2CC[C@]3(C)[C@H]1c1ccc(=O)oc1
inactive: dose: 3.75 mg/kg/injection, schedule: Q01DX009 (ip), vehicle: saline with Tween-80 92 % of control | dose: 7.5 mg/kg/injection, schedule: Q01DX009 (ip), vehicle: saline with Tween-80 90 % of control

CCCCNc1ccc(C(=O)O)cc1
inactive: dose: 100.0 mg/kg/injection, schedule: Q04DX003 (ip), vehicle: gum acacia 97 % of control | dose: 200.0 mg/kg/injection, schedule: Q04DX003 (ip), vehicle: gum acacia 97 % of control | dose: 400.0 mg/kg/injection, schedule: Q04DX003 (ip), vehicle: gum acacia 86 % of control

CCO/C=C1\SC(=S)N(c2ccccc2C)C1=O
inactive: [4] 92 % of control | [5] 90 % of control | dose: 100.0 mg/kg/injection, schedule: Q01DX009 (ip), vehicle: saline with Tween-80 91 % of control

COc1cc(O)c2c(O)c3c(c4c2c1[C@]1(C4)C(C)=CCCC1(C)C)[C@H](O)[C@@]1(O)CC(=O)C(C(N)=O)=C(O)[C@@]1(O)C3=O
inactive: dose: 6.0 mg/kg/injection, schedule: Q01DX009 (ip), vehicle: saline with Tween-80 97 % of control | dose: 6.25 mg/kg/injection, schedule: Q04DX003 (ip), vehicle: saline with Tween-80 112 % of control | dose: 12.5 mg/kg/injection, schedule: Q04DX003 (ip), vehicle: saline with Tween-80 116 % of control | dose: 25.0 mg/kg/injection, schedule: Q04DX003 (ip), vehicle: saline with Tween-80 121 % of control

Cc1ccc(C(=O)/C(=C/c2ccccc2)c2ccccc2)cc1
inactive: [1] 113 % of control | [2] 113 % of control | [3] 104 % of control

Cc1ccc(NC(=O)COc2ccc(Cl)cc2)c(C)c1
inactive: dose: 3.13 mg/kg/injection, schedule: Q01DX009 (ip), vehicle: saline with Tween-80 119 % of control | dose: 6.25 mg/kg/injection, schedule: Q01DX009 (ip), vehicle: saline with Tween-80 107 % of control | dose: 12.5 mg/kg/injection, schedule: Q01DX009 (ip), vehicle: saline with Tween-80 97 % of control | [4] 95 % of control | [5] 91 % of control

CCCCOC(OCCCC)C(C)=O
inactive: dose: 100.0 mg/kg/injection, schedule: Q01DX009 (ip), vehicle: Klucel (hydroxypropylcellulose) (HPC) 96 % of control | dose: 200.0 mg/kg/injection, schedule: Q01DX009 (ip), vehicle: Klucel (hydroxypropylcellulose) (HPC) 93 % of control | dose: 400.0 mg/kg/injection, schedule: Q01DX009 (ip), vehicle: Klucel (hydroxypropylcellulose) (HPC) 93 % of control

CC(C)NNC(=O)C(C)O (configuration not stated)
inactive: [6] 118 % of control | [7] 102 % of control | dose: 200.0 mg/kg/injection, schedule: Q01DX009 (ip), vehicle: saline 102 % of control

FC(F)(F)c1ccc2c(c1)N(CCCN1CC[N+]3(CCOCC3)CC1)c1ccccc1S2
inactive: dose: 0.5 mg/kg/injection, schedule: Q01DX009 (ip), vehicle: saline 105 % of control | dose: 1.0 mg/kg/injection, schedule: Q01DX009 (ip), vehicle: saline 94 % of control and 102 % of control | [8] 100 % of control and 105 % of control | [9] 94 % of control

C=C1C(=O)O[C@@H]2C[C@@H](C)[C@@H]3C=CC(=O)[C@@]3(C)[C@@H](O)[C@H]12
inactive: dose: 2.0 mg/kg/injection, schedule: Q01DX009 (ip), vehicle: saline + alcohol 120 % of control | [8] 104 % of control | dose: 4.0 mg/kg/injection, schedule: Q01DX009 (ip), vehicle: saline + alcohol 115 % of control | [9] 95 % of control | dose: 8.0 mg/kg/injection, schedule: Q01DX009 (ip), vehicle: saline + alcohol 115 % of control | dose: 8.0 mg/kg/injection, schedule: Q01DX009 (ip), vehicle: saline 105 % of control

O=CC(NC(=O)N(CCF)N=O)C(O)C(O)C(O)CO (configuration not stated)
inactive: dose: 3.12 mg/kg/injection, schedule: Q01DX001 (ip), vehicle: saline 100 % of control
active: dose: 25.0 mg/kg/injection, schedule: Q01DX001 (ip), vehicle: saline 171 % of control | dose: 50.0 mg/kg/injection, schedule: Q01DX001 (ip), vehicle: saline 189 % of control | dose: 100.0 mg/kg/injection, schedule: Q01DX001 (ip), vehicle: saline 231 % of control

CCOC(=O)c1c[nH]c2oc(/C=N/N3CC(CN4CCOCC4)OC3=O)cc2c1=O (configuration not stated)
inactive: dose: 12.5 mg/kg/injection, schedule: Q01DX009 (ip), vehicle: saline 95 % of control | [6] 98 % of control | [7] 97 % of control | dose: 100.0 mg/kg/injection, schedule: Q01DX009 (ip), vehicle: saline 105 % of control
